The source of these data is US7547709B2, “Chain-breaking antioxidants” (Vanderbilt University, priority 2004, dated 2009).

Like-named read-outs stand apart in the source and are kept apart here. Marks after values point to notes of the source that are not given here.

The conditions of data set [1]: for k/alkyl: second order rate constant for reaction with alkyl radicals: Table A.
The conditions of data set [2]: for O—H BDE, absolute measured value (±2 SD): EPR equilibration; for O—H BDE, absolute measured value (±2 SD) / Experimental substituent effect on O—H BDE, 5-pyrimidinols (vi): solution phase; for O—H BDE: O—H bond dissociation enthalpy: Table A; for Experimental substituent effect on O—H BDE, 5-pyrimidinols (vi): 298 K, relative to unsubstituted (vi).
The nature of data set [3]: Reaction with peroxyl radicals, oxygen consumption in inhibited autoxidation of styrene. In kind it is physicochemical. As to conditions: for Rate constants with peroxyl radicals, pyrimidinol versus phenolic counterpart: (vi)/(iv) pair; for k/peroxyl: second order rate constant for reaction with peroxyl radicals: Table A; for Rate constant for reaction with peroxyl radicals: benzene, 323 K.

For data set [4] the following is noted: open atmosphere.
The conditions of data set [5]: Burton et al. 1985; cited from earlier work.
For data set [6] the following is noted: solution phase, 298 K, from ref 2C, cited from earlier work; for Experimental substituent effect on O—H BDE, phenols (iv): relative to unsubstituted (iv).
The conditions of data set [7]: benzene, 298 K, reported in ref 12, cited from earlier work.
Details of data set [8]: key: Not an air-stable compound. As to conditions: Table 2, column (iv); cited from earlier work.

On to `Oc1cncnc1` [Example 1, 5-Pyrimidinol], for which the “k/alkyl: second order rate constant for reaction with alkyl radicals” value (shortened to “k/alkyl: second order rate constant”) in data set [1] was 3.6 × 10^6. For the same molecule, in data set [2] (Estimate based upon other results to date for other 5-pyrimidinols), the “O—H BDE: O—H bond dissociation enthalpy (estimate)” value is listed as 91.3^a.

As to `Cc1nc(C)c(O)c(C)n1` [Example 2, 2,4,6-Trimethyl-5-pyrimidinol], the “k/alkyl: second order rate constant” value in data set [1] is 4.6 × 10^5. For the same molecule, the “Rate constant for reaction with alkyl radicals (estimate)” value in data set [1] (benzene, 298 K, neophyl clock (N), estimate from correlations of k and β for CH3CN, EtOAc, t-BuOH) is given as 4.6 × 10^5 (N)^c,d M^−1 s^−1. Moreover, the “Deuterium kinetic isotope effect (kH/kD), alkyl radicals” value in data set [1] (dry solvents containing D2O) was found to be 3.1. In data set [2], the “O—H BDE, absolute measured value (±2 SD)” value was found to be 85.2 ± 0.5 kcal/mol; the “O—H BDE: O—H bond dissociation enthalpy” value was 85.2; the “Experimental substituent effect on O—H BDE, 5-pyrimidinols (vi)” value (“Experimental substituent effect … (vi)” for short) is -5.9 kcal/mol. Also, in data set [3], the “Rate constants with peroxyl radicals, pyrimidinol versus phenolic counterpart” value is not above 3; the “k/peroxyl: second order rate constant for reaction with peroxyl radicals” value (“k/peroxyl: second order rate constant” for short) was 3.3 ± 0.4 × 10^4; the “Rate constant for reaction with peroxyl radicals” value was 3.3 ± 0.4 × 10^4 M^−1 s^−1.

As to `Cc1nc(C(C)(C)C)c(O)c(C(C)(C)C)n1` [Example 3, 2-Methyl-4,6-di-tert-butyl-5-pyrimidinol], the “k/alkyl: second order rate constant” value in data set [1] was 3.2 ± 0.5 × 10^4. In data set [1] (benzene, 298 K, neophyl radical clock (N)), the “Rate constant for reaction with alkyl radicals” value was 3.2 ± 0.5 × 10^4 (N) M^−1 s^−1. Besides, in data set [2], the “O—H BDE, absolute measured value (±2 SD)” value worked out at 84.10 ± 0.25 kcal/mol; the “O—H BDE: O—H bond dissociation enthalpy” value is 84.1; the “Experimental substituent effect … (vi)” value is -7.0 kcal/mol. Moreover, in data set [3], the “Rate constants with peroxyl radicals, pyrimidinol versus phenolic counterpart” value is “roughly the same”; the “k/peroxyl: second order rate constant” value is 2.2 ± 0.3 × 10^4; the “Rate constant for reaction with peroxyl radicals” value is listed as 2.2 ± 0.3 × 10^4 M^−1 s^−1.

As to `COc1nc(C)c(O)c(C)n1` [Example 4, 2-Methoxy-4,6-dimethyl-5-pyrimidinol], the “O—H BDE: O—H bond dissociation enthalpy” value in data set [2] is listed as 82.5.

For the molecule `Cc1nc(N(C)C)nc(C)c1O` [Example 5, 2-N,N-Dimethylamino-4,6-dimethyl-5-pyrimidinol], the “k/alkyl: second order rate constant” value in data set [1] is reported as 2.9 ± 1.1 × 10^6. The “Rate constant for reaction with alkyl radicals” value in data set [1] (benzene, 298 K, 5-hexenyl radical clock (H)) was 2.9 ± 1.1 × 10^6 (H) M^−1 s^−1. In addition, the “Rate of reaction with alkyl radicals relative to α-TOH” value in data set [1] (versus α-TOH) is reported as 5 times. For the same molecule, in data set [2], the “O—H BDE, absolute measured value (±2 SD)” value was 78.16 ± 0.25 kcal/mol; the “O—H BDE: O—H bond dissociation enthalpy” value came out at 78.2; the “Experimental substituent effect … (vi)” value was -12.9 kcal/mol. Moreover, in data set [2] (relative to a-TOH), the “O—H BDE difference versus a-TOH, experiment” value was -0.1 kcal/mol. In data set [3], the “k/peroxyl: second order rate constant” value is recorded as 8.6 ± 0.5 × 10^6 and the “Rate constant for reaction with peroxyl radicals” value is 8.6 ± 0.5 × 10^6f M^−1 s^−1. Further, the “Deuterium kinetic isotope effect (kH/kD), peroxyl radicals” value in data set [3] (dry solvents containing D2O) turned out to be 3.1. Moreover, the “Stability to air oxidation, in words” value in data set [4] is listed as “without degradation by air oxidation”.

In the case of `CCN1CCCc2c(C)c(O)c(C)c(C)c21` [Formula 3b], the “Reactivity with peroxyl radicals compared to tocopherol, in words” value in data set [5] was “react slowly with peroxyl radicals”.

`Oc1ccccc1` [iv, phenol]: in data set [6], the “O—H BDE of unsubstituted phenol, absolute value” is reported as “(88.3) kcal/mol”.

On to `Cc1cc(C)c(O)c(C)c1` [iv-b], for which the “Rate constant for reaction with alkyl radicals” value in data set [7] (neophyl clock (N)) is on record as 8.5 ± 0.2 × 10^4 (N)^e M^−1 s^−1. The “Experimental substituent effect on O—H BDE, phenols (iv)” value (“Experimental substituent effect … (iv)” below) in data set [6] was -5.6 kcal/mol. The “Rate constant for reaction with peroxyl radicals” value in data set [3] was 1.1 ± 0.1 × 10^5 M^−1 s^−1.

Consider `Cc1cc(C(C)(C)C)c(O)c(C(C)(C)C)c1` [iv-c], for which the “Rate constant for reaction with alkyl radicals” value in data set [7] (neophyl clock (N)) was 4.8 ± 1.5 × 10^3 (N)^e M^−1 s^−1. The “Experimental substituent effect … (iv)” value in data set [6] was -7.3 kcal/mol. For the same molecule, in data set [3], the “Rate constant for reaction with peroxyl radicals” value was 1.8 ± 0.3 × 10^4 M^−1 s^−1.

Regarding `Cc1cc(N(C)C)cc(C)c1O` [iv-d], the “Air stability, footnote letter in place of O—H BDE” value in data set [8] was “d”.

Turning to α-tocopherol [a-TOH (1)], in data set [7] (5-hexenyl clock (H)), the “Rate constant for reaction with alkyl radicals” value is 6.0 ± 1.5 × 10^5 (H)^e M^−1 s^−1. Besides, the “Experimental substituent effect … (iv)” value in data set [6] is reported as −10.0^c kcal/mol. Moreover, the “Rate constant for reaction with peroxyl radicals” value in data set [3] was 4.1 ± 0.4 × 10^6 M^−1 s^−1.
